Columns and labels:
[1] = test system: fibronectin gene expression; test: Expression of fibrotic marker genes following bleomycin-induced pulmonary fibrosis (real time PCR, lung): fibronectin; type: in vivo, Male Wistar rats; conditions: bleomycin 10 U/kg intratracheal; daily oral treatment with 50 mg/kg, days 1-21; lung RNA at day 21; vs bleomycin + vehicle; FIG. 3
Protocol: (§1) All experiments were performed in accordance with German guidelines for animal welfare, performed by persons certified to work with animals and approved by the responsible authorities. Male Wistar rats were intratracheally injected with Bleomycin sulfate (10 U/kg body weight in 300 μl saline) or saline alone (saline control) using a catheter (0.5 mm internal diameter, […]) through the nasal passage, following exposure to the anaesthetic Isofluorane for 5 minutes. The following day, the rats were orally treated with Example A (compound (12)) or saline suspended in 1 ml 0.1% Natrosol. Control rats were administered 1 ml 0.1% Natrosol (vehicle control).
(§2) 21 days following bleomycin instillation, the rats were killed with a lethal intraperitoneal injection of Narcoren™ (Pentobarbital Sodium, Rhone Merieux). The lungs were then removed, blotted dry and half was snap frozen in liquid nitrogen and stored at −80° C. The other half was fixed in 4% formalin for subsequent paraffin embedding and histology.
(§3) (B) Effect of a representative compound on expression of fibrotic marker genes following bleomycin-induced pulmonary fibrosis.
(§4) One part of the frozen lung tissue dedicated to investigation of gene expression was cut into small pieces using a sterile scalpel blade. […] The concentration of each sample was then measured using a spectrophotometer. […]

[2] = test system: bleomycin-induced pulmonary fibrosis; test: Effect on lung morphology following bleomycin-induced pulmonary fibrosis (histology, Masson's Trichrome staining); type: in vivo, Male Wistar rats; conditions: bleomycin 10 U/kg intratracheal; daily oral treatment with 50 mg/kg, days 1-21; lungs removed 21 days after bleomycin; FIG. 1C
Protocol: (A) Effect of a representative compound on lung morphology following bleomycin-induced pulmonary fibrosis. Bleomycin sulfate (Bleomycin […]) was purchased from a local pharmacy. All experiments were performed in accordance with German guidelines for animal welfare, performed by persons certified to work with animals and approved by the responsible authorities. Male Wistar rats were intratracheally injected with Bleomycin sulfate (10 U/kg body weight in 300 μl saline) or saline alone (saline control) using a catheter (0.5 mm internal diameter, […]) through the nasal passage, following exposure to the anaesthetic Isofluorane for 5 minutes. The following day, the rats were orally treated with Example A (compound (12)) or saline suspended in 1 ml 0.1% Natrosol. Control rats were administered 1 ml 0.1% Natrosol (vehicle control). [table] 21 days following bleomycin instillation, the rats were killed with a lethal intraperitoneal injection of NarcorenTM (Pentobarbital Sodium, Rhone Merieux). The lungs were then removed, blotted dry and half was snap frozen in liquid nitrogen and stored at -80° C. The other half was fixed in 4% formalin for subsequent paraffin embedding and histology. […] Collagen deposition was assessed using Masson's Trichrome staining.

[3] = test system: procollagen I gene expression; test: Expression of fibrotic marker genes following bleomycin-induced pulmonary fibrosis (real time PCR, lung): procollagen I; type: in vivo, Male Wistar rats; conditions: bleomycin 10 U/kg intratracheal; daily oral treatment with 50 mg/kg, days 1-21; lung RNA at day 21; vs bleomycin + vehicle; FIG. 2
Protocol: as §1, §2, §3, §4

melting point [°C] | Structure (SMILES) | expression of fibrotic marker genes: fibronectin (normalized to 18S) [1] | lung fibrosis (lung morphology, collagen deposition by Masson's Trichrome staining) [2] | expression of fibrotic marker genes: procollagen I (normalized to 18S) [3]
265 to 266 | COC(=O)c1ccc2c(c1)NC(=O)/C2=C(\Nc1ccc(C(=O)N2CCN(C)[C@@H](C)C2)cc1)c1ccccc1 [(60), (S)-3-(Z)-[1-{4-[(3,4-dimethyl-piperazin-1-yl)-carbonyl]-phenylamino}-1-phenyl-methylidene]-6-methoxycarbonyl-2-indolinone] | – | – | –
– | COC(=O)c1ccc2c(c1)NC(=O)/C2=C(\Nc1ccc(C(=O)N2CCN(C)CC2)cc1)c1ccccc1 [Example A, methyl 3-(Z)-[1-{4-[(4-methyl-piperazin-1-yl)-carbonyl]-phenylamino}-1-phenyl-methylidene]-2-indolinone-6-carboxylate] | significant (p<0.0001) inhibition | nearly complete reversal of lung fibrosis | significant (p<0.0001) inhibition

From patent US20090048267A1, “MEDICAMENTS FOR THE TREATMENT OR PREVENTION OF FIBROTIC DISEASES” (Boehringer Ingelheim International GmbH, priority 2004, published 2009)
